Patent US20190308987A1, “DUAL MODULATORS OF BOTH MU AND KAPPA OPIOID RECEPTORS” (priority 2016, published 2019)
Several values for one entry are separate records, joined by “and”; a condition that tells them apart may be missing. Identical values can stand only once. Entries after “also recorded” stand apart in the source; their conditions may differ.

Experiments:
[1] = system: visceral pain (abdominal stretches); assay: Acetic acid induced writhing assay; type: in vivo, Swiss Webster mice
Method: To determine whether BNAP provides KOR mediated analgesia acetic acid-induced abdominal stretches were counted in mice. Swiss Webster mice were allowed to acclimate in individual testing cages for at least 10 min. Following the acclimation period the vehicle or BNAP was administered via s.c injection at the specified dose. After waiting for 10 min the mice were injected intraperitoneally with 10 mL/kg 0.6% (wt/vol) acetic acid and returned to their observation chambers. After the first 3 min, the number of stretches and abdominal contractions were counted for 15 min. All values shown for abdominal stretching experiments represent separate groups of mice (n=4-8) as each animal was tested only once and euthanized immediately after testing.
In order to confirm the involvement of the KOR in the analgesia produced by BNAP in the Acetic Acid Induced Writhing test, this test was performed in the presence of the KOR-specific antagonist nor-Binaltorphimine 2HCl (nor-BNI). According to previous literature, nor-BNI antagonist activity reaches optimal selectivity and efficacy in the writhing test at 24 hours post administration.^27, 28 These animals were injected sub-cutaneously with either 10 mg/kg nor-BNI or saline 24 hours prior to initiation of the writhing test. The writhing test was then performed as described above (n=5-6).

[2] = system: mouse distal colon circular muscle; assay: Colon circular muscle isometric tension recordings, distal colon
Method: (§1) Mice were euthanized by cervical dislocation. The colon was dissected, flushed of its contents, and trimmed of mesentery. […] The tissues, 0.5 cm in length, were suspended vertically along the axis of the circular muscle with a metal triangle tied to a hook under 1 g of passive tension in 15 mL siliconized organ baths.
(§2) Data are presented as the mean±S.E.M, values of P≤0.05 were considered significant.

[3] = target: T1, kappa opioid receptor (KOR) (Homo sapiens, UniProt P41145); assay: Competitive radioligand binding, KOR ([3H]nor-BNI)
T1 construct: expressed in transfected cells; host or cells: CHO cells (membranes)
Method: The details of the Radioligand Binding and Functional Studies that were used were described previously.^19 Chinese hamster ovarian (CHO) cell lines were used as monoclonal opioid receptor expressing cells. The μ, δ, and κ opioid receptors were labeled with [^3H]naloxone, ^3H-naltrindole ([^3H]NTI) and ^3H-nor-Binaltorphimine ([^3H]norBNI). The opioid receptor expressing cell membranes were incubated with the radioligands at different concentrations of the drug under investigation at 30° C. for 1 h. With the absence and presence of 10 μM naltrexone, specific binding was got as the difference in binding obtained. The specific binding of the drugs to the radioligand was calculated from data using linear regression analysis of Hill plots.
(§3) All samples were assayed in triplicate and repeated at least twice for a total of 3 independent determinations. Results were reported as mean values±SEM. Concentration-effect curves were fit by nonlinear regression to a one-site binding model, using GraphPad Prism software, to determine EC50 and Emax values. IC50 values were obtained from Hill plots and analyzed by linear regression using Microsoft Excel software. Binding Ki values were determined from IC50 values using the Cheng-Prusoff equation: Ki=IC50/l+([L]/KD), where [L] is the concentration of […] and KD is the KD of the radioligand.

MOR = MOR (Mus musculus, UniProt P42866); assay: [35S]GTPγS-binding assay, low MOR-expressing CHO cell line membranes; type: biochemical; design: expressed in transfected cells; host or cells: CHO cells (membranes)
Method: [^35S]GTPγS-binding Assays using a Low MOR-expressing CHO Cell Line: Cell membranes were incubated with varying concentrations of BNAP or 3 μM DAMGO (standard full agonist at MOR) in the presence of 10 μM GDP and 0.1 nM [^35S]GTPγS in assay buffer (50 mM Tris-HCl, pH 7.4, 3 mM MgCl2, 0.2 mM EGTA and 100 mM NaCl) for 90 min at 30° C. Nonspecific binding was determined using 10 μM unlabeled GTPγS. The incubation was terminated by rapid vacuum filtration through GF/B glass fiber filters. Bound radioactivity was determined by liquid scintillation spectrophotometry. Additional methodological details of the assay were described previously.^9
as §3

intestinal transit = assay: Charcoal meal test for gastrointestinal transit; type: in vivo, mice
Method: Forty-eight hours before testing, mice were placed in cages with raised mesh wire to suspend them above their bedding and prevent ingestion of feces or bedding. The animals were habituated for 24 h in the presence of food and water and then fasted for 24 h with free access to water as previously reported.^24 This time frame was chosen to deplete the intestine and colon of any feces. To maintain caloric intake and to avoid hypoglycemia, mice had access to a sugar water solution consisting of a final concentration of 5% dextrose for the first 8 h of the fasting period. […] At 30 min after the administration of the charcoal meal, the mice were euthanized by cervical dislocation, and the small intestine from the jejunum to the cecum was dissected and placed in cold saline to stop peristalsis. The distance traveled by the leading edge of the charcoal meal was measured relative to the total length of the small intestine, and the percentage of intestinal transit for each animal was calculated as percentage transit (charcoal distance)/(small intestinal length)×100. This is referred to as intestinal transit in the text.

[4] = system: mouse proximal colon circular muscle; assay: Colon circular muscle isometric tension recordings, proximal colon
Method: as §1, §2

KOR = target: T2, KOR (Homo sapiens, UniProt P41145); assay: [35S]GTPγS-binding assay, KOR-expressing CHO cell membranes; type: biochemical
T2 construct: expressed in transfected cells; host or cells: CHO cells (membranes)
Method: [^35S]-GTPγS-Binding Assays using DOR- or KOR-Expressing CHO Cell Lines: Cell membranes (10 μg protein) were incubated with 10 μM GDP and 0.1 nM [^35S]-GTPγS in assay buffer in the presence and absence of varying concentrations of BNAP, 3 μM SNC80 (standard full agonist at DOR) or 3 μM U50,488H (standard full agonist at KOR) for 90 min at 30° C. Nonspecific binding was determined with 10 μM unlabeled GTPγS. The reaction was terminated and bound radioactivity determined as described above and previously.^9
as §3

With `O=C(N[C@@H]1CC[C@@]2(O)[C@H]3Cc4ccc(O)c5c4[C@@]2(CCN3CC2CC2)C1O5)c1cc[n+](Cc2ccccc2)cc1` (stereo partly shown) [BNAP] the “analgesia in presence of nor-BNI” value ([1]; 10 mg/kg nor-BNI s.c. 24 h before, morphine pelleted animals) was “effectively blocked the analgesia produced by BNAP”, the “active concentration in hypernociceptive model” value ([1]; mice chronically treated with 75 mg morphine pellet) was “active at three fold lower concentration; also recorded: active at concentrations three-fold lower” and the number of writhes ([1]; s.c., naive mice) was “dose dependently reduced the number of writhes”. For the same molecule, the “inhibition of morphine-induced contractions” value ([2]; 1 nM antagonist, distal colon) was “neither NAP nor BNAP showed significant inhibition of morphine-induced contractions”, the “antagonism of morphine effects” value ([2]; 10 nM antagonist, distal colon) was “neither NAP nor BNAP showed significant antagonism of morphine effects” and the “morphine pD2 in presence of antagonist” value ([2]; 100 nM antagonist, distal colon (naive 6.0)) was 5.2. For the same molecule, the “contractions induced by compound alone” value ([2]; up to 30 μM, distal colon preparation) was “Neither BNAP nor NAP alone at concentrations up to 30 μM induced contractions”, the Ki ([3]; KOR, [3H]nor-BNI, read-out: Ki (nM) ± SEM) was 3.46 ± 0.05 nM and the “Selectivity (κ/μ)” value ([3]; ratio of Ki KOR/MOR) was 4.6. The EC50 (MOR; EC50 (nM), 35S-GTP[γS]) was 4.84 nM and 4.8 nM, the “% max of agonist” value (MOR; Emax relative to full agonist DAMGO) was 14.6±0.9% and the “reduction of intestinal motility” value (intestinal transit; charcoal gavage, compound alone) was 1.5 fold. The “reversal of morphine induced inhibition of intestinal motility” value (intestinal transit; mice treated acutely with morphine) was “unable to reverse morphine induced inhibition of intestinal motility”, the “inhibition of morphine-induced contractions” value ([4]; 1 nM antagonist, proximal colon) was “neither NAP nor BNAP showed significant inhibition of morphine-induced contractions” and the “morphine pD2 in presence of antagonist” value ([4]; 10 nM antagonist, proximal colon (naive 6.8)) was 5.9. For the same molecule, the “further reduction of morphine pD2” value ([4]; 100 nM versus 10 nM antagonist, proximal colon) was “no further reduction of the morphine pD2”, the “contractions induced by compound alone” value ([4]; up to 30 μM, proximal colon preparation) was “Neither BNAP nor NAP alone at concentrations up to 30 μM induced contractions” and the EC50 (KOR; 35S-GTP[γS]) was 2.9 ± 1.1 nM. The “% max of agonist” value (KOR; Emax relative to full agonist U50,488H) was 45.9±1.7%.
